Assay results reported in US12673933B2, “Aminopyrazine compounds as HPK1 inhibitor and the use thereof” (BEIGENE, LTD., priority 2019, dated 2026).

Target: T1, HPK1 kinase (aa1-346, Life Technologies) (Homo sapiens, UniProt Q92918)
T1 construct: HPK1 kinase (aa1-346, Life Technologies); purchased Life Technologies
T1 sequence (Q92918 1-346): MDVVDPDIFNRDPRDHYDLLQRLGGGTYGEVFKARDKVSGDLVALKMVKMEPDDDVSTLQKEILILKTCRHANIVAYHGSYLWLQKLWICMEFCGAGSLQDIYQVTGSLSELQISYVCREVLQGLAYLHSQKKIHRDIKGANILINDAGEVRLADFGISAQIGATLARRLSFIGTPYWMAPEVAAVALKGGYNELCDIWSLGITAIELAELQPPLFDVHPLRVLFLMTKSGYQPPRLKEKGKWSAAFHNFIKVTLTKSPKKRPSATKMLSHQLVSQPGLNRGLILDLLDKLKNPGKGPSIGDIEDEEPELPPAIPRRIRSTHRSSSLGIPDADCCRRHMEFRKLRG
Assay: HPK Kinase Activity Assay at 1 mM ATP (TR-FRET)
Format: biochemical
Conditions: HPK1 kinase 40 nM, 0.5 μM STK1 substrate, read-out: Enzymatic activity IC50
In short: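 HPK1 (aa1-346, 40 nM) was preincubated 60 min at room temperature with compound (0–10 μM) in pH 7.0 HEPES/MgCl2 buffer. Reaction ran 120 min at room temperature with 1 mM ATP and 0.5 μM STK1 substrate. Phosphorylation was read as the TR-FRET 665/620 nm ratio, with IC50 from a four-parameter logistic fit.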

IC50 [nM] | SMILES
5.9 | Cc1cc(-c2cnc(N)c(Oc3cnn(C4CCN(C)CC4)c3)n2)cc2c1CCN(C)C2 [Example 307, 5-(2,5-dimethyl-1,2,3,4-tetrahydroisoquinolin-7-yl)-3-(1-(1-methylpiperidin-4-yl)-1H-pyrazol-4-yloxy)pyrazin-2-amine]
48 | Cc1cc(-c2cnc(N)c(Oc3cnn(CCC#N)c3)n2)cc2c1CN(C)CC2 [Example 308, 3-(4-((3-amino-6-(2,8-dimethyl-1,2,3,4-tetrahydroisoquinolin-6-yl)pyrazin-2-yl)oxy)-1H-pyrazol-1-yl)propanenitrile]
22 | Cc1cc(-c2cnc(N)c(Oc3cnn(C4CCOCC4)c3)n2)cc2c1CCN(C)C2 [Example 309, 5-(2,5-dimethyl-1,2,3,4-tetrahydroisoquinolin-7-yl)-3-(1-(tetrahydro-2H-pyran-4-yl)-1H-pyrazol-4-yloxy)pyrazin-2-amine]
20 | CCN1CC(n2cc(Oc3nc(-c4cc(C)c5c(c4)CN(C)CC5)cnc3N)cn2)C1 [Example 310, 5-(2,5-dimethyl-1,2,3,4-tetrahydroisoquinolin-7-yl)-3-(1-(1-ethylazetidin-3-yl)-1H-pyrazol-4-yloxy)pyrazin-2-amine]
7.7 | Cc1cc(-c2cnc(N)c(Oc3cnn([C@H]4CC[C@@](C)(O)CC4)c3)n2)cc2c1CCN(C)C2 [Example 311, (1s,4s)-4-(4-(3-amino-6-(2,5-dimethyl-1,2,3,4-tetrahydroisoquinolin-7-yl)pyrazin-2-yloxy)-1H-pyrazol-1-yl)-1-methylcyclohexanol]
63 | Cc1cc(-c2cnc(N)c(Oc3cnn([C@H]4CC[C@@](C)(O)CC4)c3)n2)cc2c1CN(C)CC2 [Example 312, (1s,4s)-4-(4-(3-amino-6-(2,8-dimethyl-1,2,3,4-tetrahydroisoquinolin-6-yl)pyrazin-2-yloxy)-1H-pyrazol-1-yl)-1-methylcyclohexanol]
8.3 | Cc1cc(-c2cnc(N)c(Oc3cnn(C(C)(C)CC#N)c3)n2)cc2c1CCN(C)C2 [Example 313, 3-(4-(3-amino-6-(2,5-dimethyl-1,2,3,4-tetrahydroisoquinolin-7-yl)pyrazin-2-yloxy)-1H-pyrazol-1-yl)-3-methylbutanenitrile]
4.5 | Cc1cc(-c2cnc(N)c(Oc3cnn(CC4(F)CCOCC4)c3)n2)cc2c1CCN(C)C2 [Example 314, 5-(2,5-dimethyl-1,2,3,4-tetrahydroisoquinolin-7-yl)-3-(1-((4-fluoro-tetrahydro-2H-pyran-4-yl)methyl)-1H-pyrazol-4-yloxy)pyrazin-2-amine]
33 | Cc1cc(-c2cnc(N)c(Oc3cnn([C@H]4C[C@H](C#N)C4)c3)n2)cc2c1CCN(C)C2 [Example 315, (1r,3r)-3-(4-((3-amino-6-(2,5-dimethyl-1,2,3,4-tetrahydroisoquinolin-7-yl)pyrazin-2-yl)oxy)-1H-pyrazol-1-yl)cyclobutane-1-carbonitrile]
85 | Cc1cc(-c2cnc(N)c(Oc3cnn([C@H]4C[C@H](C#N)C4)c3)n2)cc2c1CN(C)CC2 [Example 316, (1r,3r)-3-(4-((3-amino-6-(2,8-dimethyl-1,2,3,4-tetrahydroisoquinolin-6-yl)pyrazin-2-yl)oxy)-1H-pyrazol-1-yl)cyclobutane-1-carbonitrile]
20 | Cc1cc(-c2cnc(N)c(Oc3cnn(C(C)(C)C#N)c3)n2)cc2c1CCN(C)C2 [Example 317, 2-(4-(3-amino-6-(2,5-dimethyl-1,2,3,4-tetrahydroisoquinolin-7-yl)pyrazin-2-yloxy)-1H-pyrazol-1-yl)-2-methylpropanenitrile]
60 | Cc1cc(-c2cnc(N)c(Oc3cnn(CC(C)(C)C#N)c3)n2)cc2c1CN(C)CC2 [Example 318, 3-(4-(3-amino-6-(2,8-dimethyl-1,2,3,4-tetrahydroisoquinolin-6-yl)pyrazin-2-yloxy)-1H-pyrazol-1-yl)-2,2-dimethylpropanenitrile]
18 | CC#Cc1nn(-c2nc(-c3cc(C)c4c(c3)CN(C)CC4)cnc2N)cc1C(=O)N(C)C [Example 319, 1-(3-amino-6-(2,5-dimethyl-1,2,3,4-tetrahydroisoquinolin-7-yl)pyrazin-2-yl)-N,N-dimethyl-3-(prop-1-ynyl)-1H-pyrazole-4-carboxamide]
